Laboratory results published in paper PMC8597046, “Use of Mixture Dosing and Nonlinear Mixed Effect Modeling of Eight Environmental Contaminants in Rabbits to Improve Extrapolation Value of Toxicokinetic Data” (Environmental Health Perspectives, 2021).

How the values were obtained:
[1] = Estimation of loading and daily maintenance doses and NLME model simulations; set-up: species or system female rabbits; conditions: oral; for Computed maintenance dose: daily; for Computed maintenance dose / Computed loading dose: scaled to the targeted CSS of Table 6; for Daily maintenance dose: to maintain serum concentration of 1 ng/mL, daily CL×Css/F; for Daily maintenance dose / Loading dose: DEHP dose for MEHP in serum; for Loading dose: to rapidly attain serum concentration of 1 ng/mL, Vss×Css/F
Method: The ultimate goal of this TK investigation was to compute a dosage regimen that allowed targeted steady-state serum concentrations to be attained rapidly for a planned TK/TD trial on the reprotoxic effect of a mixture of environmental contaminants in female rabbits. […] With that in mind, the loading and the daily maintenance doses of each compound were evaluated using Equations 12 and 13, respectively.
This risk was also the reason why the NLME model was employed to simulate the time development of the amounts of compounds in the central and peripheral compartments following administration of the daily maintenance dose of each compound over the same duration.
The loading and maintenance doses computed to ensure a nominal CSS of 1 ng/mL were scaled to determine the doses to be administrated by oral route to female rabbits to maintain the targeted CSS .

[2] = Nonlinear mixed effect (NLME) compartmental modeling of merged IV and oral serum concentrations; conditions: for tvK12 (distribution rate constant) / tvK21 (distribution rate constant) / tvVc (volume of the central compartment) / tvKabs (rate constant of absorption) / tvK10 (elimination rate constant from the central compartment): population primary parameter, typical value; for tvKabs (rate constant of absorption) / AUCVO: MEHP after oral DEHP; for Volume(s) of the peripheral compartment: for PFOA first peripheral compartment; for AUCIV: dosing time to infinity after intravenous dosing; for AUCVO: dosing time to infinity after oral dosing
Source text: A nonlinear mixed effect (NLME) modeling approach was used to analyze simultaneously all data obtained from the different rabbits after both IV and oral administrations and to provide robust estimates of the typical TK parameters.
The primary parameters of the model, namely the volume of distribution of the central compartment (V1), the first-order rate constants ( K10 , K12 , K21 , and Kabs plus K13 , K31 for PFOA) and the bioavailability (F) and their associated precisions [standard error (SE)] were estimated by minimizing an objective function value (OFV) expressed as minus twice the log of the likelihood estimation ( −2LL ). […] Marginal likelihood was approximated by using the Laplacian engine by default and, when this engine was unable to determine the SE of the estimate, the Quasi-Random Parametric Expectation Maximization (QRPEM) was selected.
Between subject variability (BSV) of the parameters was measured using the exponential model θparameter_i=θtv_parameter×exp (ηi), where θparameter_i is the parameter estimated for the ith individual, θtv_parameter is the typical population value of the parameter, and ηi is the deviation associated with the ith individual from the corresponding value of the parameter at the population level.
The distribution of ηi was assumed to be normal with a mean of 0 and a variance ω² . BSV was reported as a coefficient of variation (CV) in the original scale CV(%)=100× exp (ω^2)−1 .
The residual variance was modeled using a combined additive and proportional error model Cobsij=Cpredij(1 + ε1ij) + ε2ij, where Cobsij and Cpredij are respectively the jth observed and predicted concentrations for the ith individual, and ε1ij and ε2ij are the multiplicative and additive residual errors.
Secondary parameters were calculated from the population primary parameters.
The clearance values (CL) were estimated using Equation 5: (5) CL=K10×V1, where V1 is the volume of the central compartment and K10 is the elimination rate constant from the central compartment.
The volume of the peripheral compartment (V2) was estimated with Equation 6: (6) V2=V1×(K12/K21), where K12 and K21 are the distribution rate constants between the central and the peripheral compartments.
The clearance of distribution (Q) was estimated using Equation 7: (7) Q=K12×V1, with […] and K12 as defined above.
The volume of distribution associated with the terminal phase was estimated with Equation 10: (10) VZ=CL/λZ, with λZ as defined above.
The AUC was computed as a secondary parameter using Equation 11: (11) AUC=Dose/CL.
The terminal half-life was estimated with Equation 1, as previously described.

[3] = female, New Zealand white (INRA 1777 line), rabbit, in vivo
[4] = female, New Zealand white, rabbit, in vivo
[5] = female, New Zealand white, rabbit, in vivo, iv
[6] = female, New Zealand white, rabbit, in vivo, po
[7] = population secondary parameter, mean

| Structure (SMILES) | Computed maintenance dose [1] | Computed loading dose [1] | Daily maintenance dose [1] | Loading dose [1] | Vd [2, 3] | k el [2, 3] | half-life [2, 4] | AUC [2, 5] | AUC [2, 6] | tvK12 (distribution rate constant) ([2]; mean) | tvK21 (distribution rate constant) ([2]; mean) | tvVc (volume of the central compartment) ([2]; mean) | tvKabs (rate constant of absorption) ([2]; mean) | Volume(s) of the peripheral compartment [2, 7] | AUCIV ([2]; population secondary parameter) | AUCVO ([2]; population secondary parameter) | tvK10 (elimination rate constant from the central compartment) ([2]; mean) | MRT [2, 7] | also measured |
| --- | --- | --- | --- | --- | --- | --- | --- | --- | --- | --- | --- | --- | --- | --- | --- | --- | --- | --- | --- |
| Brc1ccc(Oc2ccc(Br)cc2Br)c(Br)c1 [BDE-47, 2,2′,4,4′-tetrabromodiphenyl ether] | 0.0013 mg/kg | 0.0075 mg/kg | 0.0084 mg/kg | 0.047 mg/kg | 45 L/kg | 1.8e-05 s⁻¹ | 163 h | 29 µM·h | 71 µM·h | 0.0697 h⁻¹ | 0.009154 h⁻¹ | 5.188 L/kg | 0.02289 h⁻¹ | 39 L/kg | – | – | – | – | bioavailability ([2]; female, New Zealand white (INRA 1777 line), rabbit, in vivo, po, Oral bioavailability (F), NLME model): > 85%; MRT [2, 4]: 133 h; clearance ([2]; female, New Zealand white, rabbit, in vivo, Clearance, population secondary parameter, mean): 5.67 mL/min/kg; bioavailability ([2]; female, New Zealand white, rabbit, in vivo, po, Bioavailability, population secondary parameter, mean, as fraction): 96%; AUCVO/dose ([2]; oral dosing): 2.97 μmol×h/L per μmol/kg BW |
| O=S(=O)(c1ccc(O)cc1)c1ccc(O)cc1 [BPS, bisphenol S] | 0.122 mg/kg | 0.032 mg/kg | 0.122 mg/kg | 0.032 mg/kg | – | – | – | – | – | – | – | 1.681 L/kg | – | – | 3.3 µM·h | 3.6 µM·h | 1.895 h⁻¹ | 6.3 h | tvKabs (rate constant of absorption), fixed ([2]; fixed to 10, estimation of Kabs converging toward infinity): 10 h⁻¹; Oral systemic exposure ([2]; oral, dose-normalised AUC): 0.20 μmol/h/L per μmol/kg BW |
| Clc1c(Cl)c(Cl)c(Cl)c(Cl)c1Cl [HCB, hexachlorobenzene] | – | – | – | – | 35 L/kg | 9.74e-07 s⁻¹ | 480 h | 4.5 µM·h | 271 µM·h | 0.05299 h⁻¹ | 0.03851 h⁻¹ | 14.63 L/kg | 0.3488 h⁻¹ | 20 L/kg | – | – | – | – | VSS [2, 3]: 33 to 45 L/kg; tvf (ilogit of the oral bioavailability) ([2]; female, New Zealand white (INRA 1777 line), rabbit, in vivo, po): 0.03625; bioavailability ([2]; female, New Zealand white (INRA 1777 line), rabbit, in vivo, po, Oral bioavailability (F)): ~50%; Clearance [2, 4]: 0.83 to 5.67 mL/min/kg; Clearance(s) of distribution [2, 4]: 13 mL/min/kg; clearance [2, 4]: 0.85 mL/min/kg; MRT ([2]; female, New Zealand white, rabbit, in vivo, MRT): > 800 h; bioavailability ([2]; female, New Zealand white, rabbit, in vivo, po, Bioavailability): 51% |
| CCCCC(CC)COC(=O)c1ccccc1C(=O)O (centres unmarked) [MEHP, mono(2-ethylhexyl)phthalate] | – | – | – | – | – | – | – | – | – | 0.285 h⁻¹ | – | 0.329 L/kg | – | 3.5 L/kg | 9.0 µM·h | 53 µM·h | 1.411 h⁻¹ | 8.2 h | F value for MEHP (fraction of the DEHP dose metabolized into MEHP) ([2]; MEHP IV vs DEHP oral, NLME model): 87%; Clearance [2, 7]: 7.83 mL/min/kg; MRT ([2]; population secondary parameter, mean, listed as mono-2-ethylhexyl phthalate): a few hours; half-life ([2]; terminal, population secondary parameter, mean): 31 h |
